Results as given in patent US7112676B2, “Pyrimido compounds having antiproliferative activity” (Hoffmann-La Roche Inc., priority 2002, dated 2006).

Key:
KDR = biological target: T1, KDR (Homo sapiens, UniProt P35968); experiment: KDR kinase HTRF assay; assay type: biochemical; conditions: 0.3 mM ATP, read-out: IC50 (μM) - Enzyme Inhibition Assays KDR
T1 construct: EEE-tag
Description: (§1) To determine inhibition of KDR, FGFR, EGFR, and PDGFR activity, kinase assays were conducted using an HTRF (Homogeneous Time Resolved Fluorescence) assay. This assay is described in A. J. Kolb et. al., Drug Discovery Today, 1998, 3(7), p 333.
Prior to kinase reaction, recombinant EEE-tagged KDR was activated in the presence of activation buffer (50 mM HEPES, pH 7.4, 1 mM DTT, 10% glycerol, 150 mM NaCl, 0.1 mM EDTA, 26 mM MgCl2, and 4 mM ATP). The enzyme was incubated at 4° C. for 1 hour.
(§2) Kinase activity assays were performed in 96-well polypropylene plates (Falcon) with a total volume of 90 μL in each well. Each well contained 1 μM KDR substrate (Biotin-EEEEYFELVAKKKK), 1 nM activated KDR, and a test compound with one of 8 assay concentrations ranging from 100 μM to […] (1:5 serial dilution). The kinase activity assay was done in the presence of 100 mM HEPES, pH 7.4, 1 mM DTT, 0.1 mM Na2VO4, 25 mM MgCl2, 50 mM NaCl (from KDR stock solution), 1% DMSO (from compound), 0.3 mM ATP (at Km concentration) and 0.02% BSA. The reaction was incubated at 37° C. for 30 minutes. To stop the KDR reaction, 72 μL of reaction mixture was transferred into a STOP plate containing 18 μL of revelation buffer (20 mM EDTA, 50 mM HEPES, pH 7.4, 0.02% BSA, 10 nM Eu-labelled anti-pY antibody (final conc. 2 nM), and 100 nM streptavidin (final conc. 20 nM)). After mixing, 35 μL of solution was transferred into duplicate wells of a 384-well black plate (Costar), and read at 615/665 nm on a Wallac Victor 5 reader.
(§3) Compound IC50 values were determined from duplicate sets of data, and calculated by using Excel and fitting data to equation Y=[(a−b)/{1+(X/c)^d]+b, where a and b are enzyme activity in the presence of no test inhibitor compound and an infinite amount of inhibitor test compound, respectively, c is the IC50 and d is the hill constant of the compound response. The IC50 value is the concentration of test compound that reduces by 50% the enzyme activity under the test conditions described.

VEGF-stimulated HUVEC = VEGF-stimulated HUVEC proliferation assay (BrdU); assay type: cell-based; conditions: Homo sapiens, VEGF 20 ng per mL, BrdU labeling, 24 hour exposure, read-out: IC50 (μM) of VEGF and FGF-Stimulated HUVEC Proliferation Assays HUVEC/VEFG
Description: The antiproliferative activity of test compounds of this invention in cell-based assays was evaluated by BrdU assay using the BrdU kit (Roche Biochemicals 1-647-229). Human umbilical vein endothelial cells (HUVEC, Clonetics CC-2519) were cultured in EGM-2 (Clonetics CC-3162) medium and seeded at 10000 cells per well in a volume of 200 μL of EGM-2 (Clonetics CC-3162) media in a 96-well flat bottom plates (Costar 3595) overnight. After 24 hours of growth at 37° C. with 5% CO2, the incubation media was removed slowly by aspiration and the content of each well was washed with 300 μL pre-warmed EBM-2 (Clonetics CC-3156) containing 50 μg per mL of gentamycin and 50 ng per mL of amphotercin-B (Clonetics CC-4083). Subsequently, the remaining media was again aspirated and replaced with 160 μL per well of serum starvation media (EBM-2 supplemented with 1% heat inactivated FBS (Clonetics CC-4102), 50 μg per mL gentamycin and 50 ng per mL of amphotercin-B (Clonetics CC-4083), 10 units per mL of Wyeth-Ayerst heparin (NDC0641-0391-25), and 2 mM L-glutamine (GIBCO 25030-081). After serum starving the cells for 24 hours, 20 μL of test compound at 10× test concentration in serum starvation medium with 2.5% DMSO was added to the appropriate wells. The control wells contained 20 μL of serum starvation medium with 2.5% DMSO. Plates were returned to the incubator for 2 hours. After pre-incubating the cells with the test compounds for 2 hours, 20 μL of growth factors at 10× assay concentration diluted in serum starvation media, FGF at 50 ng per mL, or VEGF (R&D systems 293-VE) at 200 ng per mL were added. The final concentration of FGF in the assay was 5 ng per mL and the final concentration of VEGF in the assays was 20 ng per mL. The growth factor free control wells had 20 μL per well of serum starvation media with the same amount of BSA as the wells with growth factors. The plates were returned to the incubator for an additional 22 hours.
After 24 hour exposure to the test compounds, the cells were labeled with BrdU (Roche Biochemicals 1-647-229), by adding 20 μL per well of BrdU labeling reagent that has been diluted (1:100) in serum starvation medium. The plates were then returned to the incubator for 4 hours. The labeling medium was removed by draining the medium onto paper towels. The cells were fixed and DNA denatured by adding 200 μL of fixation/denaturation solution to each well and incubating at room temperature for 45 minutes. The fixation/denaturation solution was drained onto paper towels and to each well was added 100 μL of anti-BrdU-POD and the wells were incubated for 2 hours at room temperature. The antibody solution was removed and the wells were each washed 3–4 times with 300 μl PBS. 100 μL of the TMB substrate solution was added to each well and the wells were incubated at room temperature for 5–8 minutes. The reaction was then stopped by adding 100 μL per well of 1 M phosphoric acid. The plates were read at 450 nm with reference wavelength of 650 nm. The percent inhibition for each test compound was calculated by subtracting the absorbency of the blank (no cells) wells from all wells, then subtracting the division of the average absorbency of each test duplicate by the average of the controls from 1. The final product was then multiplied by 100 (% of inhibition=(1−average absorbency of test duplicate/average of control)100). The IC50 value is the concentration of test compound that inhibits by 50% BrdU labeling, and is a measure of inhibition of cell proliferation. The IC50 is determined from the linear regression of a plot of the logarithm of the concentration versus percent inhibition.

PDGFR = PDGFR kinase HTRF assay; assay type: biochemical; conditions: 2.3 μM ATP, read-out: IC50 (μM) - Enzyme Inhibition Assays PDGFR
Description: as §1, §2
The PDGFR kinase activity assay was performed with 1 μM substrate (Biotin-EEEEYFELV), 1.0 nM PDGFR, test compounds, 100 mM HEPES, pH 7.4, 1 mM DTT, 5 mM MgCl2, 2 mM MnCl2, 1% DMSO, 2.3 μM ATP (Km for PDGFR), 0.1 mM Na2VO4, and 0.02% BSA. The rest of the assay was performed in the same manner as the KDR assay.
as §3

T1 sequence (P35968 20-1356, species assumed): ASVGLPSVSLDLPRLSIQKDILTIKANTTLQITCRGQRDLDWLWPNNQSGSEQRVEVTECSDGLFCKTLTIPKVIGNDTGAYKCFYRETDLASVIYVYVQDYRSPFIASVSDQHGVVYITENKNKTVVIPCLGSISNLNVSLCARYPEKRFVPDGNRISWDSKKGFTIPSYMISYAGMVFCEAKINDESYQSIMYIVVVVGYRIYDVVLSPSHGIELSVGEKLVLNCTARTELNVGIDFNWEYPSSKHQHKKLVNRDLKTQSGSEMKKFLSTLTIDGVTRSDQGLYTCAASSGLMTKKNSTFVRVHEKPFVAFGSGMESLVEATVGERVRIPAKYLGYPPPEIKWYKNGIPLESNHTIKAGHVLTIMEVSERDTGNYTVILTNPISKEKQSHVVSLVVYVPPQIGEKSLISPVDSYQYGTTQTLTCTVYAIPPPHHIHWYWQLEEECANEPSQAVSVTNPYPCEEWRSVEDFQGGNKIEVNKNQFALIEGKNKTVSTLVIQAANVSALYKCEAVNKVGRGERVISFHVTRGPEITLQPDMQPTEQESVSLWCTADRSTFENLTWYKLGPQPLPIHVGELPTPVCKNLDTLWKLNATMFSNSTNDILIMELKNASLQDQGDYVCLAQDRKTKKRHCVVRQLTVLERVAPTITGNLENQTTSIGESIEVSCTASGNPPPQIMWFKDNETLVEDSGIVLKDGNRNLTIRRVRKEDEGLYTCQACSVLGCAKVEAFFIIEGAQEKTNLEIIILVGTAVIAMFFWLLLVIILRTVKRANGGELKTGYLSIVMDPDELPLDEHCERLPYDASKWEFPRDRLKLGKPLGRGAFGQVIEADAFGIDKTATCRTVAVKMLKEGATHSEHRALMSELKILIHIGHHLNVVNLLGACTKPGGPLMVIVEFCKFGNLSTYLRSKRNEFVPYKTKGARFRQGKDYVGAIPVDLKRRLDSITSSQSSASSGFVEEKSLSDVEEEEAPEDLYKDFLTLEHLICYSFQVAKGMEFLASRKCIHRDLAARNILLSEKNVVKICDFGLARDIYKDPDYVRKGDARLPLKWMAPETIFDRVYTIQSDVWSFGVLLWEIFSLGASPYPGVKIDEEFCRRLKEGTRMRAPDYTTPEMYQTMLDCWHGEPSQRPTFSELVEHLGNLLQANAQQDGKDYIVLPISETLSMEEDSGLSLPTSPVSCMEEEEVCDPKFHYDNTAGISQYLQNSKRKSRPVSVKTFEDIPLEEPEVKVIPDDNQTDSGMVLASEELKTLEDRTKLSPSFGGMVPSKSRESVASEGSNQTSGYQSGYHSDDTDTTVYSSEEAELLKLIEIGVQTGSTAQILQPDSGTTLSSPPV

Structure (SMILES) | IC50 (KDR) | IC50 (PDGFR) | IC50 (VEGF-stimulated HUVEC)
COc1ccc(N2C(=O)N(c3cccc(C(N)=O)c3)c3nc(Nc4ccccc4)ncc3C2C)cc1 (racemic) [Example 6, (±)-3-[3-(4-Methoxy-phenyl)-4-methyl-2-oxo-7-phenylamino-3,4-dihydro-2H-pyrimido[4,5-d]pyrimidin-1-yl]-benzamide] | < 10 µM | < 10 µM | < 10 µM
COc1ccc(N2C(=O)N(c3cccc(C#N)c3)c3nc(Nc4ccccc4)ncc3C2C)c(F)c1 (racemic) [Example 9b, (±)-3-[3-(2-Fluoro-4-methoxy-phenyl)-4-methyl-2-oxo-7-phenylamino-3,4-dihydro-2H-pyrimido[4,5-d]pyrimidin-1-yl]-benzonitrile] | < 10 µM | < 10 µM | < 10 µM
COc1ccc(N2C(=O)N(c3ccccc3)c3nc(Nc4ccccc4)ncc3C2C)cc1 (racemic) [Example 1g, (±)-3-(4-Methoxy-phenyl)-4-methyl-1-phenyl-7-phenylamino-3,4-dihydro-1H-pyrimido[4,5-d]pyrimidin-2-one] | < 10 µM | < 10 µM | < 10 µM
COc1ccc(N2C(=O)N(c3cccc(C(N)=O)c3)c3nc(Nc4ccccc4)ncc3C2C)c(F)c1 (racemic) [Example 10, (±)-3-[3-(2-Fluoro-4-methoxy-phenyl)-4-methyl-2-oxo-7-phenylamino-3,4-dihydro-2H-pyrimido[4,5-d]pyrimidin-1-yl]-benzamide] | < 10 µM | < 10 µM | < 10 µM

The next lines start with results.

IC50 (KDR) | IC50 (PDGFR) | Structure (SMILES) | IC50 (VEGF-stimulated HUVEC)
< 10 µM | < 10 µM | COc1ccc(N2C(=O)N([C@H](C)CO)c3nc(Nc4ccccc4)ncc3[C@@H]2C)cc1 [Example 15b, 1-(2-Hydroxy-1-(R)-methyl-ethyl)-3-(4-methoxy-phenyl)-4-(S)-methyl-7-phenylamino-3,4-dihydro-1H-pyrimido[4,5-d]pyrimidin-2-one] | < 10 µM
< 10 µM | < 10 µM | COc1ccc(N2C(=O)N(c3ccccc3)c3nc(Nc4ccccc4)ncc3C2C)c(F)c1 (racemic) [Example 8d, (±)-3-(2-Fluoro-4-methoxy-phenyl)-4-methyl-1-phenyl-7-phenylamino-3,4-dihydro-1H-pyrimido[4,5-d]pyrimidin-2-one] | < 10 µM
< 10 µM | < 10 µM | COc1ccc(N2C(=O)N(c3ccccc3)c3nc(Nc4ccccc4)ncc3[C@@H]2C)cc1 (single isomer, unassigned) [Example 3] | < 10 µM
< 10 µM | < 10 µM | COc1ccc(N2C(=O)N(c3ccc(OC)cc3)C(C)c3cnc(Nc4ccccc4)nc32)cc1 (racemic) [Example 4b, (±)-1,3-Bis-(4-methoxy-phenyl)-4-methyl-7-phenylamino-3,4-dihydro-1H-pyrimido[4,5-d]pyrimidin-2-one] | < 10 µM
< 10 µM | < 10 µM | COc1ccc(N2C(=O)N(c3cccc(C#N)c3)c3nc(Nc4ccccc4)ncc3C2C)cc1 (racemic) [Example 5b, (±)-3-[3-(4-Methoxy-phenyl)-4-methyl-2-oxo-7-phenylamino-3,4-dihydro-2H-pyrimido[4,5-d]pyrimidin-1-yl]-benzonitrile] | < 10 µM
